The values that follow come from patent publication US7326699B2, “4-Amino-5-phenyl-7-cyclobutyl-pyrrolo(2,3-d)pyrimidine derivatives” (Novartis AG, priority 2001, dated 2008).

One may read the IC50 as the concentration that gives 50% inhibition. High values mean lower potency, low ones higher potency.

This test concerns the target T1, human IGF-IR (Homo sapiens, UniProt P08069).
T1 construct: complete human IGF-IR cDNA: GenBank Acc; No. NM_000875; expressed in transfected cells; host or cells: NIH-3T3 mouse fibroblasts
The test is described as follows: cellular "Capture ELISA": IGF-I induced IGF-IR autophosphorylation. The class given is cell-based. The note with it: NIH-3T3 mouse fibroblasts transfected with human IGF-IR cDNA, 90 min compound, 10 ng/ml IGF-I for 10 min. The procedure:
In this assay the activity of the compounds of the invention against Insulin-like growth factor I (IGF-I) induced autophosphorylation of the IGF-IGF-IR is determined. The assay is conducted as follows:
The cells which overexpress human IGF-IGF-IR are cultured in Dulbecco's minimal essential (DMEM) medium, containing 10% Fetal Calf Serum (FCS). […] On day 3 the medium is discarded and the cells are incubated for 24 h in minimal medium (DMEM, containing 0.5% FCS). […] The cells are incubated for 90 min in the presence of a compound of formula I. Thereafter the cells are stimulated with 50 μl IGF-I (final concentration of IGF-I in the well=10 ng/ml; IGF-I is obtained from Sigma; Product Code: I3769) and incubated for 10 min at 37° C.
The medium is discarded and the cells are washed twice with PBS/O (=Phosphate-Buffered Saline without CaCl2) and lysed for 15 min on ice with 50 μl/well RIPA-buffer [50 mM Tris.HCl, pH=7.2, 120 mM NaCl, 1 mM EDTA, 6 mM EGTA, 1% NP-40, 20 mM NaF, 1 mM benzamidine, 15 mM sodium pyrophosphate, 1 mM Phenyl methyl sulphonyl fluoride (PMSF) and 0.5 mM Na3VO4] and shaken for 10 min using a 96-well plate shaker (=cellular extracts).
The plates are washed twice with 0.05% (v/v) Tween-20 in Phosphate-Buffered Saline (PBS) and once with nanopure H2O. […] After blocking, the plates are washed once with nanopure H2O.
After incubating the extracts and the secondary antibody for 2 h at 4° C., the extracts are discarded, the plates are washed twice with 0.05% (v/v) Tween-20 in PBS and once with nanopure water.
90 μl/well AP substrate (CDP-Star; obtained from Tropix; Cat. No.: MS100RY) are then added and the plates are incubated for 45 min at RT in the dark, followed by measuring AP activity in a Packard Top Count Microplate Scintillation Counter. The IC50 values for the compounds of formula I are calculated via linear regression analysis using the GraphPad In-stat program (GraphPad Software, USA).
Test for activity against IGF-I induced IGF-IR autophosphorylation using the cellular “Capture ELISA” test
The cellular “Capture ELISA” test is carried out as described above.
Background: In an ELISA, binding on a coated surface is turned into a signal by an enzyme label.

T1 sequence (P08069 31-1367): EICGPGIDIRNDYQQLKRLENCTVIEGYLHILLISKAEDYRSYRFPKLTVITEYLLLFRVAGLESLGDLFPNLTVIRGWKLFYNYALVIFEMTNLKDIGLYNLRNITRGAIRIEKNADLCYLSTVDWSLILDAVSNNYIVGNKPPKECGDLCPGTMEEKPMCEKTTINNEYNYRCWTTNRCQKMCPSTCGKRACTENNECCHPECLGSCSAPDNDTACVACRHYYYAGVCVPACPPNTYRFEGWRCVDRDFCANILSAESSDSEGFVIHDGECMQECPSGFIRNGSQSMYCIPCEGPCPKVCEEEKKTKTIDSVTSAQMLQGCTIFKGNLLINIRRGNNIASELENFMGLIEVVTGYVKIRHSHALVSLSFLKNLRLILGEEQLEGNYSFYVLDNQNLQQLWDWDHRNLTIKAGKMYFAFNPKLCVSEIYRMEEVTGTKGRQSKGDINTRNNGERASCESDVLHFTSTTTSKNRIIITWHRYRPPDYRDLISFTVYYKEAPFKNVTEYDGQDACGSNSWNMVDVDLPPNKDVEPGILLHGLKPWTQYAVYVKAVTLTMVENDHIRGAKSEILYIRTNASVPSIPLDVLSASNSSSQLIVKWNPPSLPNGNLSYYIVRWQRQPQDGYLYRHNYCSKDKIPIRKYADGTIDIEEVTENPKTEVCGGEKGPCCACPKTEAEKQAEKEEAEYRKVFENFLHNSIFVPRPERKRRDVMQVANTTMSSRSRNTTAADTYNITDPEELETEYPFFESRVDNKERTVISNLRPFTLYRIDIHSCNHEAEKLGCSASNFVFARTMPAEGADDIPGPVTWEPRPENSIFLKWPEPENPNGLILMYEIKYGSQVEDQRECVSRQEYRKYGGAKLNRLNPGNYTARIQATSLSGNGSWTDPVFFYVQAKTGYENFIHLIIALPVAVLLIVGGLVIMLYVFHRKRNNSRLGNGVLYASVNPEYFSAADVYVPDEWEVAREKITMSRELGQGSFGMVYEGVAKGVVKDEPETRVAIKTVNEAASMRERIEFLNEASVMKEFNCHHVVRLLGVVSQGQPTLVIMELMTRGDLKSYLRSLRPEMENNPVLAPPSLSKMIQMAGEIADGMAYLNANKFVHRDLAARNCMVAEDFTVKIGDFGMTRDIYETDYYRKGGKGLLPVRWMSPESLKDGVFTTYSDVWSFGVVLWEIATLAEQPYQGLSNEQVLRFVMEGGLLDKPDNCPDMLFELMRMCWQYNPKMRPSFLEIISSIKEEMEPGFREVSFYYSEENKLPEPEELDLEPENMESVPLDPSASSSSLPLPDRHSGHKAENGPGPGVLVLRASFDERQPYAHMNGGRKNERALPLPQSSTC

For `CN(C)CCOC(=O)NC[C@H]1C[C@H](n2cc(-c3cccc(OCc4ccccc4)c3)c3c(N)ncnc32)C1` [Example 98, trans-{3-[4-Amino-5-(3-benzyloxy-phenyl)-pyrrolo[2,3-d]pyrimidin-7-yl]-cyclobutylmethyl}-carbamic acid 2-dimethylamino-ethyl ester], the IC50 is 40 nM.
